Results taken from PMC8125440, “A Novel N-Tert-Butyl Derivatives of Pseudothiohydantoin as Potential Target in Anti-Cancer Therapy” (Molecules, 2021).

Assays:
[1] = target: T1, 11β-hydroxysteroid dehydrogenase type 2 (11β-HSD2) (Homo sapiens, UniProt P80365); experiment: cortisol to cortisone conversion in human kidney microsomes, cortisol ELISA; assay type: cell-based
T1 construct: gene HSD11B2
T1 sequence (P80365 1-405): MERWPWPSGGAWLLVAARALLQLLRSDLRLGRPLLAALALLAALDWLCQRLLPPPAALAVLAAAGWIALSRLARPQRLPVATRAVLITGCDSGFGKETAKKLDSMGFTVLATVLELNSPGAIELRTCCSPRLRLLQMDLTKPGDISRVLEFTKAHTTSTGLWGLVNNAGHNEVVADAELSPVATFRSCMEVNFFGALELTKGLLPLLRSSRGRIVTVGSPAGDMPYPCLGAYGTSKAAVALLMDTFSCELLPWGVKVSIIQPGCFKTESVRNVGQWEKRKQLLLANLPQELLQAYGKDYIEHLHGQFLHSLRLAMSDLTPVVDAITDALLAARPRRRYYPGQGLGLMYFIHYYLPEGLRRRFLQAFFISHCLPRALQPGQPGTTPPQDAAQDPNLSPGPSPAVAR

[2] = target: T2, 11β-hydroxysteroid dehydrogenase type 1 (11β-HSD1) (Homo sapiens, UniProt P28845); experiment: cortisone to cortisol conversion in pooled human liver microsomes, cortisol ELISA; assay type: cell-based
T2 construct: gene HSD11B1
T2 sequence (P28845 whole entry): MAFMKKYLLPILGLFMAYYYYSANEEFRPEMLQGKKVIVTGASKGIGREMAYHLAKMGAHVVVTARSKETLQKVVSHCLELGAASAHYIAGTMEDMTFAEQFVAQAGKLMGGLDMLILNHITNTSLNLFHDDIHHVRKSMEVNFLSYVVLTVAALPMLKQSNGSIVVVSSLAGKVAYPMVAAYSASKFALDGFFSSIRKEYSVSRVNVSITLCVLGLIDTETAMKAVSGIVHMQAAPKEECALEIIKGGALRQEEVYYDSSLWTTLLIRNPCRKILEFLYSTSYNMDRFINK

inhibition at 10 µM [1] [%] | inhibition at 10 µM [2] [%] | SMILES
53.6 |  | CC(C)(C)NC1=NC(=O)C(c2ccccc2)S1 (centres unmarked) [3f, 2-(tert-Butylamino)-5-phenylthiazol-4(5H)-one]
 | 82.5 | CC(C)(C)NC1=NC(=O)C2(CCCCC2)S1 [3h, 2-(tert-Butylamino)-1-thia-3-azaspiro[4.5]dec-2-en-4-one]
